Assay results as given in US20240201204A1, “Biomarker and Druggable Target of Neurodegeneration” (University Hospitals Cleveland Medical Center, priority 2020, published 2024).

Key:
C57BL/6J mice = assay: Barnes maze task of learning and memory after TBI; assay type: in vivo, mouse
Protocol: (§1) Drug preparation and administration: CGP3466B (Sigma-Aldrich, SML1941) was dissolved in DMSO and then diluted in sterile saline. The final working stock was 0.0014 mg/ml for administering the 0.014 mg/kg dose. Intraperitoneal administration of CGP3466B was initiated 15 min or 24 h after injury, and tissues were harvested 6 h (for SNO-GAPDH, SNO-SIRT1 measurement) or 2 weeks (for ac-tau measurement) later, respectively. Salsalate (AdipoGen, AG-CR1-3574) was dissolved in DMSO and then diluted in sterile PBS. The final working stocks were as follows: 2.5 mg/ml (25 mg/kg dose), 1 mg/ml (10 mg/kg dose), 0.5 mg/ml (5 mg/kg dose). Daily intraperitoneal administration of salsalate was initiated 24 hr after injury and continued throughout behavioral testing. P7C3-A20 and FK866 (Sigma-Aldrich, F8557) were first dissolved in 1 vol of DMSO, followed by addition of 4 vol of Kolliphor and vigorously vortexing. The solution was then diluted with 30 vol of filtered 5% dextrose (pH 7.0). EX527 (Selleckchem, S1541) was dissolved in 1% DMSO+30% polyethylene glycol+1% Tween 80. Daily intraperitoneal administration of P7C3-A20 was initiated 24 hr after poly-traumatic brain injury. EX527 (10 mg/kg) was administer once a day and FK866 was treated twice per day, with the first injection given at the same time as P7C3-A20 (20 mg/kg) and the second injection given 6 h later (LoCoco et al., 2017 eLife). Diflunisal was first dissolved in 1 vol of DMSO, followed by addition of 2 vol of Kolliphor and vigorously vortexing. The solution was then diluted with 7 vol of saline to the appropriate concentration for administration at 25, 50, or 100 mg/kg.
(§2) The pressure in the side not containing the mouse was increased to cause membrane rupture at 20 pounds per square inch (PSI), which generates an about 1-2 ms jet airflow of 137.9+/−13.79 kPa that passes through the animal's head. The head remains untethered in a padded holder, while the body is fully shielded by a metal tube. The jet of air produced upon membrane rupture provides a concussive injury, which is followed by acceleration/deceleration of the head and then exposure to the ensuing blast wave within an enclosed space.
Barnes maze: The Barnes maze apparatus consisted of a gray circular platform (91 cm in diameter and 90 cm in height), with 20 equally spaced holes 5 cm in diameter along the perimeter (Stoelting Co.). One of these holes contained a recessed escape chamber located under the platform. Four different and equally-spaced visual cues with different shapes and colors were hung on a black circular curtain surrounding the maze. […] Total and primary latency were measured during training days, and latency to first nose pokes in escape hole and time spent in target quadrant were measured for memory test on the probe trial day. […]

degenerating axons = assay: Axon degeneration after TBI (silver staining); assay type: in vivo, mouse; details: vs. TBI+Vehicle
Protocol: as §1, with “Diflunisal was first dissolved in 1 vol of DMSO, followed by addition of 2 vol of Kolliphor and vigorously vortexing. The solution was then diluted with 7 vol of saline to the appropriate concentration for administration at 25, 50, or 100 mg/kg.” left out

GAPDH = target: T1, GAPDH (Mus musculus, UniProt P16858); assay: S-nitrosylation of GAPDH after TBI (SNO-resin assisted capture, western blot); assay type: in vivo
T1 construct: from tissue; host or cells: cerebral cortex of C57BL/6J mice after TBI
T1 sequence (P16858 whole entry): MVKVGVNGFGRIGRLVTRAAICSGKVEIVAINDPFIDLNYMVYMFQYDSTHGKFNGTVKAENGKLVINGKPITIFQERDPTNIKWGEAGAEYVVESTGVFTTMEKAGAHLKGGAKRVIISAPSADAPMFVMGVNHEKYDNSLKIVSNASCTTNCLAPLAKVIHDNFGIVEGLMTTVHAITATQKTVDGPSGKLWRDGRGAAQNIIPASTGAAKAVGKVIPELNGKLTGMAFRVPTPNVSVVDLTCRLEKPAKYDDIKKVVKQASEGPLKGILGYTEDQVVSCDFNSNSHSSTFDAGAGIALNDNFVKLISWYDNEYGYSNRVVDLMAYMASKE
Protocol: as §1, with “The solution was then diluted with 7 vol of saline to the appropriate concentration for administration at 25, 50, or 100 mg/kg.” left out
SNO-resin assisted capture (SNO-RAC): SNO-RAC was performed as described previously (Forrester, 2009). […] After two times centrifugation (20,000 g at 4° C. for 20 min), protein concentration of supernatants was determined using Coomassie protein assay (Thermo Scientific, #1856210). […] SNO-proteins were then eluted with 2× Laemmli Sample Buffer (Bio-Rad Laboratories, Inc., #1610737) with 10% beta-mercaptoethanol (Bio-Rad Laboratories, Inc., #1610710) and analyzed by SDS-PAGE and immunoblotting.

tau = assay: Tau mislocalization after TBI (tau and NeuN immunohistochemistry); assay type: in vivo, mouse; details: vs. TBI+Vehicle
Protocol: as §1, §2
Immunohistochemistry: Mice were transcardially perfused with cold 1× phosphate-buffered saline (PBS) followed by 4% paraformaldehyde in PBS at pH 7.4 under anesthesia. Brains were carefully removed and post-fixed in 4% paraformaldehyde overnight at 4° C. Brains were immersed in 30% sucrose in PBS for 72 h at 4° C. and then rapidly frozen in 2-methylbutane pre-cooled to −20° C. with dry ice. Brains were cut coronally (40 μm) and sections were stored in cryoprotective solution (150 mM Ethylene glycol, 100 mM glycerol, 250 mM PBS) at −20° C. […]

axon initial segment = assay: Axon initial segment (AIS) degradation after TBI (AnkG, βIV-spectrin staining); assay type: in vivo, mouse; details: vs. TBI+Vehicle
Protocol: as §1, §2
Immunohistochemistry: Mice were transcardially perfused with cold 1× phosphate-buffered saline (PBS) followed by 4% paraformaldehyde in PBS at pH 7.4 under anesthesia. Brains were carefully removed and post-fixed in 4% paraformaldehyde overnight at 4° C. Brains were immersed in 30% sucrose in PBS for 72 h at 4° C. and then rapidly frozen in 2-methylbutane pre-cooled to −20° C. with dry ice. Brains were cut coronally (40 μm) and sections were stored in cryoprotective solution (150 mM Ethylene glycol, 100 mM glycerol, 250 mM PBS) at −20° C. For tau and NeuN staining, sections were washed three times with PBS for 5 min and then treated with 0.2% Triton X-100 in PBS for 15 min. Sections were washed with PBS and then incubated with 100 mM glycine for 15 min. After blocking sections using blocking buffer (1% bovine serum albumin, 10% normal goat serum, 0.3 M glycine) for 30 min, primary antibodies (Tau, Invitrogen, #13-6400, 1:100, NeuN, EMD Millipore Cor., #MABN-140, 1:500) were incubated overnight at 4° C. Sections were washed three times with PBS (5 min each) and then incubated with Alexa Fluor 488 goat anti-mouse (Invitrogen, A11001, 1:200) or Alexa Fluor 568 goat anti-rabbit (Life technologies, A11011, 1:200) at room temperature for 2 h. […]

[1] = low-dose salsalate daily IP from 24 h after TBI

C#CCN(C)CC1=Cc2ccccc2Oc2ccccc21.O=C(O)/C=C\C(=O)O [CGP3466B]
post-TBI cognition, learning and memory phases of Barnes maze (C57BL/6J mice; CGP3466B 0.014 mg/kg IP daily, initiated 24 hours after injury, vs. TBI+Vehicle): protects mice from post-TBI impaired cognition in both learning and memory phases
post-TBI axon degeneration (silver staining) (degenerating axons; CGP3466B 0.014 mg/kg IP daily): protects mice from post-TBI axon degeneration
S-nitrosylation of GAPDH (GAPDH; CGP3466B 0.014 mg/kg IP initiated 15 min after TBI, cerebral cortex harvested 6 h later, vs. TBI+Vehicle): inhibits S-nitrosylation of GAPDH and Sirt1
post-TBI tau mislocalization (tau; CGP3466B 0.014 mg/kg IP daily, initiated 24 hours after TBI): protects mice from post-TBI tau mislocalization
post-TBI AIS degradation, cerebral cortex (axon initial segment; CGP3466B 0.014 mg/kg IP daily): protects mice from post-TBI AIS degradation in the cerebral cortex
post-TBI AIS degradation, hippocampus (axon initial segment; CGP3466B 0.014 mg/kg IP daily): protects mice from post-TBI AIS degradation in the hippocampus

O=C(Oc1ccccc1C(=O)O)c1ccccc1O [salsalate]
post-TBI cognitive impairment (learning and memory in the Barnes maze) (C57BL/6J mice; low-dose salsalate daily IP from 24 h after TBI, vs. TBI+Vehicle): protects mice from post-TBI impairments
average speed in behavioral testing (C57BL/6J mice; salsalate daily IP from 24 h after TBI): Average speed was not affected
learning, primary latency during training period of the Barnes maze (C57BL/6J mice; salsalate daily IP from 24 h after TBI, vs. TBI+Vehicle): improved learning as measured by primary latency
post-TBI axonal degeneration (degenerating axons; [1]): protects mice from post-TBI axonal degeneration
S-nitrosylation of GAPDH (GAPDH; 25 mg/kg salsalate after TBI): S-nitrosylation of GAPDH is not affected
post-TBI tau mislocalization (tau; [1]): protects mice from post-TBI tau mislocalization
post-TBI AIS degradation (axon initial segment; [1]): protects mice from post-TBI AIS degradation
